One assay addresses D(2) dopamine receptor (Homo sapiens, UniProt P14416).
The next assay concerns the target D(3) dopamine receptor (Homo sapiens, UniProt P35462).

pKi: −log10 of the molar value.

One may read the pKi as the Ki on a negative log10 scale, so that one unit is a factor of ten. Read a high pKi as a low Ki.

Chain of D(3) dopamine receptor (P35462 whole entry): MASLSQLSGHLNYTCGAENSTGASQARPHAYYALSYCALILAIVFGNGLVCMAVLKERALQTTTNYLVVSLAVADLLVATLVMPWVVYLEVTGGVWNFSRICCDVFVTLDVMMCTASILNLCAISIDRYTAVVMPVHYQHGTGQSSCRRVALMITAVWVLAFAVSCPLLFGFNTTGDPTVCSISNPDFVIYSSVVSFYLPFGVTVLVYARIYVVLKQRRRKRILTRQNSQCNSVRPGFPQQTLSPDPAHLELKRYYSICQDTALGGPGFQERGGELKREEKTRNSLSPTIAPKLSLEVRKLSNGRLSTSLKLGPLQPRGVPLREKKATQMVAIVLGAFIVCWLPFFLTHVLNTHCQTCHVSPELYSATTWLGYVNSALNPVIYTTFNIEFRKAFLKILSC
Chain of D(2) dopamine receptor (P14416 whole entry): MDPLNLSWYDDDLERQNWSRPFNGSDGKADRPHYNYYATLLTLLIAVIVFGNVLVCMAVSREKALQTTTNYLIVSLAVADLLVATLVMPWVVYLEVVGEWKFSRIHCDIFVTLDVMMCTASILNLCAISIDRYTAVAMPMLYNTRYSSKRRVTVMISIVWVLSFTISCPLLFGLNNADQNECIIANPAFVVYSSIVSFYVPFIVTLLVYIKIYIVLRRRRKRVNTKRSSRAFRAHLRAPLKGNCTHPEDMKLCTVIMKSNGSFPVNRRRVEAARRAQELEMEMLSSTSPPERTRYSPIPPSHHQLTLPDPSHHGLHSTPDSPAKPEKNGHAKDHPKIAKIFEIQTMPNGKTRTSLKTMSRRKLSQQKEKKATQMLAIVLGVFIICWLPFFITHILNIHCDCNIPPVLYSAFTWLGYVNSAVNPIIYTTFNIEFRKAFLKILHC

In the case of `CCc1cc(Cl)c(OC)c(C(=O)NC[C@@H]2CCCN2Cc2ccccc2)c1OCc1ccccc1`, the values for the pKi on D(2) dopamine receptor and at D(3) dopamine receptor were 5.59 and 6.37, respectively.
On to `CCCN1C[C@H](OCCCCOc2ccc3c(c2)NC(=O)CC3)C[C@H]1CNC(=O)c1c(O)c(CC)cc(Cl)c1OC`, for which the figures for the pKi at D(2) dopamine receptor and on D(3) dopamine receptor were 8.59 and 9.35, respectively.
For `CCc1cc(Cl)c(OC)c(C(=O)NC[C@@H]2CCCN2CCCCOc2ccc3c(c2)NC(=O)CC3)c1O`, in that order: 7.60 and 8.16.
As for `CCc1cc(Cl)c(OC)c(C(=O)NC[C@@H]2CCCN2CCCCNC(=O)c2cc3ccccc3[nH]2)c1O`, the pKi is 6.76 at D(2) dopamine receptor and 7.21 at D(3) dopamine receptor.
For `CCc1cc(Cl)c(OC)c(C(=O)NCC2CCN(CC)C2)c1O` (centres undefined), in that order: 7.42 and 7.72.
With `CCc1cc(Cl)c(OC)c(C(=O)NC[C@@H]2CCCN2)c1O`, the pKi was 8.65 at D(2) dopamine receptor and 9.37 on D(3) dopamine receptor.
For the compound `CCCN1CCC[C@H]1CNC(=O)c1c(O)c(CC)cc(Cl)c1OC`, the pKi at D(2) dopamine receptor is 9.16; at D(3) dopamine receptor, 9.55.
For `CCc1cc(Cl)c(OC)c(C(=O)NC[C@@H]2CCCN2Cc2ccccc2)c1O`, the pKi at D(2) dopamine receptor is 6.69; at D(3) dopamine receptor, 7.54.
In the case of `CCc1cc(Cl)c(OC)c(C(=O)NC[C@@H]2C[C@@H](OCCCCOc3ccc4c(c3)NC(=O)CC4)CN2)c1O`, the results for the negative logarithm of the Ki (pKi) on D(2) dopamine receptor and at D(3) dopamine receptor were 8.75 and 9.36, respectively.
In the case of `CCCN1CCC(CNC(=O)c2c(O)c(CC)cc(Cl)c2OC)C1` (centres undefined), the figures for the pKi at D(2) dopamine receptor and on D(3) dopamine receptor were 7.18 and 7.84, respectively.
For `CCc1cc(Cl)c(OC)c(C(=O)NC[C@@H]2CCCN2CCCc2ccccc2)c1O` the same measures were 6.79 and 7.69.
Turning to `CCc1cc(Cl)c(OC)c(C(=O)NCC2CCN(C)C2)c1O` (centres undefined), the figures for the pKi on D(2) dopamine receptor and at D(3) dopamine receptor were 6.66 and 7.00, respectively.
Regarding `CCc1cc(Cl)c(OC)c(C(=O)NC[C@@H]2CCCN2CC)c1O` [ETICLOPRIDE], at D(2) dopamine receptor, the pKi is 9.93.
As for `CCc1cc(Cl)c(OC)c(C(=O)NC[C@@H]2CCCN2CCc2c(C)nc3n(c2=O)CCCC3)c1O`, the pKi is 7.13 on D(2) dopamine receptor and 7.30 at D(3) dopamine receptor.
In the case of `CCc1cc(Cl)c(OC)c(C(=O)NC[C@@H]2C[C@@H](OCCCc3ccccc3)CN2)c1O`, the pKi was 8.13 on D(2) dopamine receptor and 8.58 at D(3) dopamine receptor.
As to `CCc1cc(Cl)c(OC)c(C(=O)NC[C@@H]2C[C@@H](OCCCCNC(=O)c3cc4ccccc4o3)CN2)c1O`, the results for the pKi on D(2) dopamine receptor and on D(3) dopamine receptor were 8.64 and 9.31, respectively.
Turning to `CCc1cc(Cl)c(OC)c(C(=O)NC[C@@H]2C[C@@H](OCCCCO)CN2)c1O`, the figures for the negative-log Ki (pKi) on D(2) dopamine receptor and on D(3) dopamine receptor were 8.72 and 9.09, respectively.
With `CCc1cc(Cl)c(OC)c(C(=O)NC[C@@H]2CCCN2CCCCNC(=O)c2cc3ccccc3o2)c1O`, the pKi was 7.56 at D(2) dopamine receptor and 7.81 at D(3) dopamine receptor.
Regarding `CCc1cc(Cl)c(OC)c(C(=O)NC[C@@H]2C[C@@H](OCCCCNC(=O)c3cc4ccccc4[nH]3)CN2)c1O`, the pKi at D(2) dopamine receptor was 8.60; on D(3) dopamine receptor it was 9.10.
Turning to `CCc1cc(Cl)c(OC)c(C(=O)NC[C@@H]2C[C@@H](OCCCCOCc3ccccc3)CN2)c1O`, the values for the pKi on D(2) dopamine receptor and at D(3) dopamine receptor were 8.14 and 9.00, respectively.

(Values after ChEMBL document CHEMBL4825766, “Structure Activity Relationships for a Series of Eticlopride-Based Dopamine D2/D3 Receptor Bitopic Ligands” (J Med Chem, 2021).)
